Results on two molecules are retold here after patent US11576943B2, “Functional food composition having cranial nerve protection effect and blood flow improvement effect” (chzin Co., Ltd., priority 2020, dated 2023).

Marks after values point to notes of the source that are not given here.

Series [1] has as its system rats. Particulars: administered orally to rats; cited from earlier work.
For series [2] the following is noted: cited from earlier work.
The subject of series [3] is transient local cerebral ischemia animal model. The series can be described thus: Cranial neuroprotective action by oral administration in transient local cerebral ischemia animal model (MCAO). The class given is in vivo, sprague-dawly male rats. The method, then: The measurement of cranial neuroprotective action by oral administration of a sample in the transient local cerebral ischemia animal model was carried out as follows according to a known method.
Experimental animals were 7-week-old sprague-dawly male rats having a weight of 260 to 270 g and the experimental animals were adapted in the breeding room for 7 days before use under the environment in which the contrast cycle was controlled automatically by 12 hours. The temperature of the breeding room was maintained at 23±2° C., the humidity was 55±10%, and food and water were freely ingested.
In order to measure the neuroprotective action according to the oral administration of the sample, an animal model of cerebral ischemia was created. The middle cerebral artery occlusion (MCAO) surgery was performed to create the animal model of cerebral ischemia. […]
In order to measure the neuroprotective action of the sample according to the oral administration, the brain was excised 24 hours after the middle cerebral artery occlusion and stained with 2,3,5-triphenyltetrazolium chloride. […] The area of cerebral infarction (infarct area, mm^2) was measured using a computerized image analyzer, and the infarct volume (mm^3) was calculated by multiplying the total sum of the infarct area of each section by the thickness of the section. The measured values were expressed as mean±SEM (*p<0.05, **p<0.01).

For the molecule `CC(C)[C@@H]1CC[C@@H](C)C[C@H]1O` (racemic) [dl-menthol], in series [1], the LD50 is reported as 3.18 g/kg. The solubility in water result in series [2] is reported as “rarely dissolved in water”.
As for `CC1=NN(c2ccccc2)C(=O)C1` [MCI-186], the “Cerebral infarct volume (mm^3)” value in series [3] (2 hours after induction of cerebral ischemia and 2 hours after reperfusion, brain excised 24 hours after MCAO, mean±SEM) is given as 184.2 ± 17.3** mm^3. Further, the “Cranial nerve protection effect (%)” value in series [3] (24 hours after MCAO, relative to physiological saline group) was determined as 47.71%.
